These results are taken from US20250352611A1, “METHODS FOR TREATING CATARACTS USING POLYPEPTIDES” (REJUKON BIOPHARM INC., priority 2022, published 2025).

For experiment [1], the system named is γD (W42D) aggregates in the SH-SY5Y cell. Nature of the experiment: γD (W42D) aggregates in SH-SY5Y cells, live imaging and CellProfiler analysis. It counts as cell-based. The conditions noted are these: 20 uM, added every 4 hours for a total of 24 hours. The protocol: Cells were grown in a 12-well plate (1×10^5 cells per well) for 24 hours and transfected with γD (W42D) plasmid using EZtrans transfection reagent. 24 hours after transfection, Champ peptides RJK001 (final concentration of 20 uM) and RJK0012 (final concentration of 10 uM and 20 uM) were added into SH-SY5Y cell culture medium every 4 hours for a total of 24 hours. The effect of RJK001 and RJK012 polypeptide on the γD (W42D) aggregates in the SH-SY5Y cell mode were analyzed using a custom CellProfiler software. Briefly, cell bodies were then segmented and identified by the GFP fluorescence channel images and tracing outward to the limits of the cytoplasmic (using a diameter cutoff of 100-300 pixels). The cell bodies were used as masks to eliminate imaging artifacts outside of cell boundaries, such as background fluorescence or dead cells. After masking, punctate structures were enhanced by image processing for speckle-like features that were 10 pixels in diameter for SH-SY5Y cells and these punctate structures were then annotated as features such as γD (W42D) puncta. Finally, the total image area which was enclosed in each of the identified features (number of cell and punctate) was calculated and output to spreadsheets. At least 200 cells per sample were analyzed. […]
Granules screen and assay images were segmented and image features quantified using a custom CellProfiler and ImageJ software. […] The effect of RJK001 and RJK012 polypeptide on the γD ([…]) aggregates in the SH-SY5Y cell mode were analyzed using a custom CellProfiler software. Briefly, cell bodies were then segmented and identified by the GFP fluorescence channel images and tracing outward to the limits of the cytoplasmic (using a diameter cutoff of 100-300 pixels). The cell bodies were used as masks to eliminate imaging artifacts outside of cell boundaries, such as background fluorescence or dead cells. […] Finally, the total image area which was enclosed in each of the identified features (number of cell and punctate) was calculated and output to spreadsheets. At least 200 cells per sample were analyzed.

Experiment [2] concerns lens of cataract patients. Nature of the experiment: Immersion of intact cataract lens, opacity by daily photographs. Set-up: species or system human. As to conditions: RJK001 0.5 mM in vehicle, 6 days, dark, room temperature. The method, then: Next, we directly immersed the cataract lens removed during the operation in the buffer solution of the control group and the RJK001 protein solution of the experimental group. During the immersion for up to 6 days, the lens of the patient was photographed and recorded every day. More detailed description of the method is: Collect two intact eye lenses from cataract patients. To each tube was added 400 μL solution of vehicle (0.1% NaN3, 0.3% triton X-100, containing 1:1000 protease inhibitor cocktail) or RJK001 (0.5 mM) in vehicle which covered the lens tissue completely. Lens tissue was incubated in these solutions for 6 days in the dark at room temperature. After sealing the 48-well plate with parafilm to avoid liquid evaporation. Observe the state of the lens under the stereoscope every day and take pictures to record.

Experiment [3] relates to crystallin protein aggregates from human cataract patients. Nature of the experiment: Re-dissolution of crystallin aggregates from patients with different degrees of cataract (ThT fluorescence). As to conditions: LOCS II grades e.g. C1N2P0. An excerpt: DM: diabetes mellitus. lens opacity classification: C: cortex; N: nucleus; P: the posterior lens capsule.
Human lenses used in this study were obtained from unidentified patients undergoing extracapsular cataract surgery. The material had been classified as non-human discarded material. Preoperative clinical exam was used to classify the cataract as mixed cortical and nuclear using LOCS II four-point grading system. LOCS II four-point grading system is also commonly used in clinical settings. (Chylack LT Jr, Leske MC, McCarthy D, Khu P, Kashiwagi T, Sperduto R. Lens opacities classification system II (LOCS II). Arch Ophthalmol. 1989 July; 107(7):991-7. doi: 10.1001/archopht.1989.01070020053028. PMID: 2751471). We tested the crystallin concentrates of patients with different degrees of cataract one by one. […]

The target in experiment [4] is T1, G3BP1-GFP protein (Mus musculus, UniProt P97855).
T1 construct: Genes of full-length mouse G3BP1, G3BP1-eGFP; thrombin protease cleavage site (C); His6 (C); made in house; host or cells: Escherichia coli rosetta (DE3)
Nature of the experiment: G3BP1-GFP phase separated droplet dissolution, confocal laser microscope. It counts as biochemical. As to conditions: 60 uM polypeptide, 20 uM G3BP1-GFP, pH7.5, 40s after addition. The protocol:
The prokaryotic expressed and purified G3BP1-GFP protein (pH7.5, 20 uM G3BP1-GFP) was induced to form phase separated droplets in vitro. Polypeptides Champ-E (RJK001), Champ-D (RJK002), Champ-K (RJK012) and Champ-Q (RJK005, […], SEQ ID NO: 34) (each of 60 uM) were added dropwise to the G3BP1-GFP droplets. The observation was performed continuously through a confocal laser microscope.
For G3BP1(FL)-eGFP, purified G3BP1(FL)-eGFP, Champ-E and its variants were changed were diluted to droplet buffer (50 mM Tris, pH 7.5, 150 mM NaCl) using SpinDesalt Column (smart). G3BP1(FL)-eGFP proteins were diluted to indicated concentrations and supplemented with PEG8000 with 1.25% final concentration for 10 min to induce phase separation as reported.

As to “TEPQEESEEEVEEPEERQQTPEVVPDDSGTFYDQTVSNDLE [RJK001, polypeptide with hydrophilic and hydrophobic segment, expressed in E. coli]”, in experiment [1], the “number of γD (W42D) aggregates in the SH-SY5Y cell” value was “reduced the number of γD (W42D) aggregates in the SH-SY5Y cell in a time-dependent manner until 12 hours”. Further, the “opacity of the lens” value in experiment [2] is recorded as “reduced opacity of the lens of cataract patients”. For the same sequence, the “depolymerization effect on crystallin concentrates of patients with different degrees of cataract” value in experiment [3] is reported as “good depolymerization effects”. In experiment [4], the “dissolution of G3BP1-GFP phase separated droplets” value is on record as “significantly dissolved the phase separated droplets”.
